# According to paper PMC3488358 (Chemical biology & drug design, 2013):
# Where “and” joins values, the source holds several entries; their conditions need not be identical. Equal entries are not always repeated. Where two headings read alike, the source gives them in different places.
# Key:
# [1] = system: Methicillin-resistant S. aureus ATCC 33591 (MRSA); assay: Antibacterial susceptibility testing; format: cell-based, Staphylococcus aureus
# [2] = system: Aspergillus fumigatus ATCC 204305; assay: In vitro antifungal activity; format: cell-based
# [3] = system: Mycobacterium intracellulare ATCC 23068; assay: Antibacterial susceptibility testing; format: cell-based
# [4] = system: Staphylococcus aureus ATCC 29213; assay: Antibacterial susceptibility testing; format: cell-based
# [5] = system: Candida albicans ATCC 90028; assay: In vitro antifungal activity; format: cell-based
# [6] = system: Candida krusei ATCC 6258; assay: In vitro antifungal activity; format: cell-based
# [7] = system: HIV-1NL4.3 virus; assay: Anti-HIV activity, p24 antigen capture ELISA in CEM-GFP cells; format: cell-based; conditions: CEM-GFP cells infected with HIV-1NL4.3, non-cytotoxic concentration
# [8] = system: P. falciparum (W2 Clone); format: cell-based, Plasmodium falciparum; conditions: read-out: P. falciparum (W2 Clone) IC50; chloroquine-resistant W2 clone
# [9] = system: P. falciparum (D6 Clone); format: cell-based, Plasmodium falciparum; conditions: read-out: P. falciparum (D6 Clone) IC50; chloroquine-sensitive D6 clone
# [10] = system: Leishmania donovani promastigotes; assay: In vitro antileishmanial activity, Alamar Blue assay; format: cell-based; conditions: for IC50: read-out: L. donovani IC50; for IC90: read-out: L. donovani IC90
# [11] = system: Pseudomonas aeruginosa ATCC 27853; assay: Antibacterial susceptibility testing; format: cell-based
# [12] = system: Candida glabrata ATCC 90030; assay: In vitro antifungal activity; format: cell-based
# [13] = system: Cryptococcus neoformans ATCC 90113; assay: In vitro antifungal activity; format: cell-based
# [14] = system: Escherichia coli ATCC 35218; assay: Antibacterial susceptibility testing; format: cell-based
smiles,measurement,setting,value
"CCCCC[C@@H]1C[C@@H]2CC[C@@H]3C[C@H](C)NC(=N1)N32 (racemic) [17l, batzelladine K]",MRSA MBC,[1],- (“-” = Not active at the highest test concentration of 20 μg/mL)
same,MRSA MIC,[1],80.3 µM
same,IC50,[1]; read-out: MRSA IC50,56 µM and 56.1 µM
same,Aspergillus fumigatus MFC,[2],- (“-” = No activity at the highest test concentration of 20 μg/mL)
same,Aspergillus fumigatus MIC,[2],- (“-” = No activity at the highest test concentration of 20 μg/mL)
same,M. intracellulare MBC,[3],- (“-” = Not active at the highest test concentration of 20 μg/mL)
same,M. intracellulare MIC,[3],- (“-” = Not active at the highest test concentration of 20 μg/mL)
same,IC50,[3]; read-out: M. intracellulare IC50,79.5 µM
same,S. aureus MBC,[4],- (“-” = Not active at the highest test concentration of 20 μg/mL)
same,S. aureus MIC,[4],80.32 µM
same,IC50,[4]; read-out: S. aureus IC50,64.1 µM
same,Candida albicans MFC,[5],- (“-” = No activity at the highest test concentration of 20 μg/mL)
same,Candida albicans MIC,[5],- (“-” = No activity at the highest test concentration of 20 μg/mL)
same,Candida krusei MFC,[6],- (“-” = No activity at the highest test concentration of 20 μg/mL)
same,Candida krusei MIC,[6],- (“-” = No activity at the highest test concentration of 20 μg/mL)
same,anti-HIV activity (inhibition of HIV-1),[7],no anti-HIV activity
same,IC50,[8],13.7 µM
same,IC50,[9],14.8 µM
same,IC50,[10]; promastigotes,48.2 µM
same,IC90,[10]; promastigotes,124 µM
same,P. aeruginosa IC50,[11],- (“-” = Not active at the highest test concentration of 20 μg/mL)
same,P. aeruginosa MBC,[11],- (“-” = Not active at the highest test concentration of 20 μg/mL)
same,P. aeruginosa MIC,[11],- (“-” = Not active at the highest test concentration of 20 μg/mL)
same,Candida glabrata MFC,[12],- (“-” = No activity at the highest test concentration of 20 μg/mL)
same,Candida glabrata MIC,[12],- (“-” = No activity at the highest test concentration of 20 μg/mL)
same,Cryptococcus neoformans MFC,[13],- (“-” = No activity at the highest test concentration of 20 μg/mL)
same,Cryptococcus neoformans MIC,[13],- (“-” = No activity at the highest test concentration of 20 μg/mL)
same,IC50,[13]; read-out: Cryptococcus neoformans IC50,76.2 µM
same,E.coli IC50,[14],- (“-” = Not active at the highest test concentration of 20 μg/mL)
same,E.coli MBC,[14],- (“-” = Not active at the highest test concentration of 20 μg/mL)
same,E.coli MIC,[14],- (“-” = Not active at the highest test concentration of 20 μg/mL)
N=C(N)c1ccc(OCCCCCOc2ccc(C(=N)N)cc2)cc1 [Pentamidine],IC50,[10]; Leishmania donovani,2.94 µM
same,IC90,[10]; Leishmania donovani,5.88 µM
C[C@@H]1[C@H](O)[C@@H](C)/C=C/C=C/C=C/C=C/C=C/C=C/C=C/[C@H](O[C@@H]2O[C@H](C)[C@@H](O)[C@H](N)[C@@H]2O)C[C@@H]2O[C@](O)(C[C@@H](O)C[C@@H](O)[C@H](O)CC[C@@H](O)C[C@@H](O)CC(=O)O[C@H]1C)C[C@H](O)[C@H]2C(=O)O [Amphotericin B],IC50,[10]; Leishmania donovani,0.173 µM
same,IC90,[10]; Leishmania donovani,0.358 µM
